Reference: patent publication US10118930B2, “Piperidinylpyrazolopyrimidinones and their use” (BAYER PHARMA AKTIENGESELLSCHAFT, priority 2015, dated 2018)
Where a name gives a salt, the structure may show the parent alone.

System: clot lysis (fibrinolysis) in diluted human citrated plasma, tPA-induced
Assay: Plasma-based clot lysis assay (5%)
Format: biochemical
Conditions: human citrated platelet-poor plasma 5%, fibrinogen 3 μM, CaCl2 10 mM, tPA 0.2 nM, 37° C., OD at 405 nm
Procedure: B-2. Plasma-based Clot Lysis Assay (5%)
The clot-lysis test system configures the kinetics of clot formation and degradation in vitro and allows quantifying modulation of the process by selected test compounds.
The test compounds were dissolved in 1% acetic acid and further complemented with an equal volume of DMSO. The resulting stock solutions were serially diluted in 0.5% acetic acid/50% DMSO. 1 μL aliquots of these solutions were placed into 384 well microplates (Greiner, black, transparent bottom), followed by 30 μL of diluted human citrated plasma (platelet-poor, final concentration: 5%; supplemented with fibrinogen, final concentration: 3 μM; dilution buffer: 20 mM HEPES, 150 mM NaCl, 0.01% Brij (pH 7)). The reactions were started by addition of 20 μL of CaCl2 (final concentration: 10 mM), and tPA (tissue plasminogen activator, final concentration: 0.2 nM) in dilution buffer, followed by an additional volume of 20 μL dilution buffer for improved mixing. The reactions were incubated at 37° C. […] IC50 values were determined by comparing the resulting time courses with the time course of a blank control reaction.

| SMILES | IC50 [nM] |
| --- | --- |
| CCC(c1ccc(OC)cc1)c1nc(-c2cnn3c(C4CCNCC4)cc(=O)[nH]c23)no1 (racemic) [Example 241, 3-{5-[rac-1-(4-methoxyphenyl)propyl]-1,2,4-oxadiazol-3-yl}-7-(piperidin-4-yl)pyrazolo[1,5-a]pyrimidin-5(4H)-one hydrochloride] | 21 |
| CC1(c2nc(-c3cnn4c(C5CCNCC5)cc(=O)[nH]c34)no2)CC1 (racemic) [Example 381, Rac-3-[5-(1-Methylcyclopropyl)-1,2,4-oxadiazol-3-yl]-7-(piperidin-4-yl)pyrazolo[1,5-a]pyrimidin-5(4H)-one hydrochloride] | 29 |
| CC1(c2nc(-c3cnn4c(C5CCNCC5)cc(=O)[nH]c34)no2)CCCC1 (racemic) [Example 386, Rac-3-[5-(1-Methylcyclopentyl)-1,2,4-oxadiazol-3-yl]-7-(piperidin-4-yl)pyrazolo[1,5-a]pyrimidin-5(4H)-one hydrochloride] | 28 |
| O=c1cc(C2CCNCC2)n2ncc(-c3noc(C4CCCO4)n3)c2[nH]1 (racemic) [Example 389, Rac-7-(piperidin-4-yl)-3-(5-(tetrahydrofuran-2-yl)-1,2,4-oxadiazol-3-yl)pyrazolo[1,5-a]pyrimidin-5(4H)-one hydrochloride] | 30 |
| COCc1nn2c(C3CCNCC3)cc(=O)[nH]c2c1-c1ccc(OC)cc1 [Example 3, 2-(Methoxymethyl)-3-(4-methoxyphenyl)-7-(piperidin-4-yl)pyrazolo[1,5-a]pyrimidin-5 (4H)-one hydrochloride] | 33 |
| O=c1cc(C2CCNCC2)n2ncc(-c3ccc(F)cc3)c2[nH]1 [Example 4, 3-(4-Fluorophenyl)-7-(piperidin-4-yl)pyrazolo[1,5-a]pyrimidin-5(4H)-one hydrochloride] | 40 |
| O=c1cc(C2CCNCC2)n2ncc(-c3cccnc3)c2[nH]1 [Example 5, 7-(Piperidin-4-yl)-3-(pyridin-3-yl)pyrazolo[1,5-a]pyrimidin-5 (4H)-one hydrochloride] | 32 |
| Cc1nn2c(C3CCNCC3)cc(=O)[nH]c2c1C#N [Example 8, 2-Methyl-5-oxo-7-(piperidin-4-yl)-4,5-dihydropyrazolo[1,5-a]pyrimidine-3-carbonitrile trifluoroacetate] | 29 |
| Cc1nn2c(C3CCNCC3)cc(=O)[nH]c2c1-c1ccc(Br)cc1 [Example 10, 3-(4-Bromophenyl)-2-methyl-7-(piperidin-4-yl)pyrazolo[1,5-a]pyrimidin-5(4H)-one hydrochloride] | 110 |
| NC(=O)c1cnn2c(C3CCNCC3)cc(=O)[nH]c12 [Example 14, 5-Oxo-7-(piperidin-4-yl)-4,5-dihydropyrazolo[1,5-a]pyrimidine-3-carboxamide hydrochloride] | 24 |
| N#Cc1cnn2c(C3CCNCC3)cc(=O)[nH]c12 [Example 15, 5-Oxo-7-(piperidin-4-yl)-4,5-dihydropyrazolo[1,5-a]pyrimidine-3-carbonitrile] | 19 |
| CCOC(=O)c1cnn2c(C3CCNCC3)cc(=O)[nH]c12 [Example 16, Ethyl 5-oxo-7-(piperidin-4-yl)-4,5-dihydropyrazolo[1,5-a]pyrimidine-3-carboxylate hydrochloride] | 11 |
| O=C(O)c1cnn2c(C3CCNCC3)cc(=O)[nH]c12 [Example 17, 5-Oxo-7-(piperidin-4-yl)-4,5-dihydropyrazolo[1,5-a]pyrimidine-3-carboxylic acid hydrochloride] | 46 |
| CC(C)CNC(=O)c1cnn2c(C3CCNCC3)cc(=O)[nH]c12 [Example 21, N-Isobutyl-5-oxo-7-(piperidin-4-yl)-4,5-dihydropyrazolo[1,5-a]pyrimidine-3-carboxamide hydrochloride] | 14 |
| O=C(NCc1ccccc1)c1cnn2c(C3CCNCC3)cc(=O)[nH]c12 [Example 22, N-Benzyl-5-oxo-7-(piperidin-4-yl)-4,5-dihydropyrazolo[1,5-a]pyrimidine-3-carboxamide hydrochloride] | 13 |
| O=c1cc(C2CCNCC2)n2nc(C(F)(F)F)cc2[nH]1 [Example 24, 7-(Piperidin-4-yl)-2-(trifluoromethyl)pyrazolo[1,5-a]pyrimidin-5(4H)-one hydrochloride] | 59 |
| O=c1cc(C2CCNCC2)n2nc(-c3cccs3)cc2[nH]1 [Example 25, 7-(Piperidin-4-yl)-2-(2-thienyl)pyrazolo[1,5-a]pyrimidin-5(4H)-one hydrochloride] | 160 |
| O=c1cc(C2CCNCC2)n2nc(C3CC3)cc2[nH]1 [Example 26, 2-Cyclopropyl-7-(piperidin-4-yl)pyrazolo[1,5-a]pyrimidin-5(4H)-one hydrochloride] | 310 |

| SMILES | IC50 [nM] |
| --- | --- |
| O=c1cc(C2CCNCC2)n2nc(-c3ccc(F)cc3)cc2[nH]1 [Example 27, 2-(4-Fluorophenyl)-7-(piperidin-4-yl)pyrazolo[1,5-a]pyrimidin-5(4H)-one hydrochloride] | 170 |
| COC(=O)c1cc2[nH]c(=O)cc(C3CCNCC3)n2n1 [Example 28, Methyl 5-oxo-7-(piperidin-4-yl)-4,5-dihydropyrazolo[1,5-a]pyrimidine-2-carboxylate] | 110 |
| O=c1cc(C2CCNCC2)n2nc(-c3ccccc3)c(Br)c2[nH]1 [Example 29, 3-Bromo-2-phenyl-7-(piperidin-4-yl)pyrazolo[1,5-a]pyrimidin-5(4H)-one hydrochloride] | 20 |
| O=c1cc(C2CCNCC2)n2nc3c(c2[nH]1)CCC3 [Example 30, 4-(Piperidin-4-yl)-1,7,8,9-tetrahydro-2H-cyclopenta[3,4]pyrazolo[1,5-a]pyrimidin-2-one hydrochloride] | 200 |
| Cc1noc(-c2cnn3c(C4CCNCC4)cc(=O)[nH]c23)n1 [Example 32, 3-(3-Methyl-1,2,4-oxadiazol-5-yl)-7-(piperidin-4-yl)pyrazolo[1,5-a]pyrimidin-5(4H)-one hydrochloride] | 15 |
| CCCc1noc(-c2cnn3c(C4CCNCC4)cc(=O)[nH]c23)n1 [Example 34, 7-(Piperidin-4-yl)-3-(3-propyl-1,2,4-oxadiazol-5-yl)pyrazolo[1,5-a]pyrimidin-5(4H)-one hydrochloride] | 12 |
| O=c1cc(C2CCNCC2)n2ncc(-c3nc(-c4ccccc4)no3)c2[nH]1 [Example 35, 3-(3-Phenyl-1,2,4-oxadiazol-5-yl)-7-(piperidin-4-yl)pyrazolo[1,5-a]pyrimidin-5(4H)-one hydrochloride] | 15 |
| Cc1ccc(S(C)(=O)=NC(=O)c2cnn3c(C4CCNCC4)cc(=O)[nH]c23)cc1 (stereo not drawn) [Example 36, N-[Methyl(4-methylphenyl)oxido-lambda^6-sulfanylidene]-5-oxo-7-(piperidin-4-yl)-4,5-dihydropyrazolo[1,5-a]pyrimidine-3-carboxamide hydrochloride] | 28 |
| O=C(N=S1(=O)CCOCC1)c1cnn2c(C3CCNCC3)cc(=O)[nH]c12 [Example 37, N-(4-Oxido-1,4-lambda^4-oxathian-4-ylidene)-5-oxo-7-(piperidin-4-yl)-4,5-dihydropyrazolo[1,5-a]pyrimidine-3-carboxamide hydrochloride] | 29 |
| CCOC(=O)c1c(-c2ccccc2)nn2c(C3CCNCC3)cc(=O)[nH]c12 [Example 38, Ethyl 5-oxo-2-phenyl-7-(piperidin-4-yl)-4,5-dihydropyrazolo[1,5-a]pyrimidine-3-carboxylate trifluoroacetate] | 18 |
| Cc1ccc(-c2noc(-c3cnn4c(C5CCNCC5)cc(=O)[nH]c34)n2)cc1 [Example 39, 3-[3-(4-Methylphenyl)-1,2,4-oxadiazol-5-yl]-7-(piperidin-4-yl)pyrazolo[1,5-a]pyrimidin-5 (4H)-hydrochloride] | 27 |
| C[C@H]1C[C@H](c2cc(=O)[nH]c3c(Cl)cnn23)CCN1 [Example 40, (−)-trans-3-Chloro-7-(2-methylpiperidin-4-yl)pyrazolo[1,5-a]pyrimidin-5(4H)-one hydrochloride] | 14 |
| NC(=O)c1c(-c2ccccc2)nn2c(C3CCNCC3)cc(=O)[nH]c12 [Example 41, 5-Oxo-2-phenyl-7-(piperidin-4-yl)-4,5-dihydropyrazolo[1,5-a]pyrimidine-3-carboxamide trifluoroacetate] | 19 |
| O=C(c1c(-c2ccccc2)nn2c(C3CCNCC3)cc(=O)[nH]c12)N1CCOCC1 [Example 43, 3-(Morpholin-4-ylcarbonyl)-2-phenyl-7-(piperidin-4-yl)pyrazolo[1,5-a]pyrimidin-5(4H)-one trifluoroacetate] | 27 |
| CC(C)CNC(=O)c1c(-c2ccccc2)nn2c(C3CCNCC3)cc(=O)[nH]c12 [Example 44, trifluoroacetate] | 23 |
| O=C(O)c1cc2[nH]c(=O)cc(C3CCNCC3)n2n1 [Example 46, 5-Oxo-7-(piperidin-4-yl)-4,5-dihydropyrazolo[1,5-a]pyrimidine-2-carboxylic acid hydrochloride] | 69 |
| N#Cc1ccc(-c2cnn3c(C4CCNCC4)cc(=O)[nH]c23)cc1 [Example 47, 4-[5-Oxo-7-(piperidin-4-yl)-4,5-dihydropyrazolo[1,5-a]pyrimidin-3-yl]benzonitrile trifluoroacetate] | 13 |
| O=c1cc(C2CCNCC2)n2ncc(-c3cccc(Cl)c3)c2[nH]1 [Example 48, 3-(3-Chlorophenyl)-7-(piperidin-4-yl)pyrazolo[1,5-a]pyrimidin-5(4H)-one hydrochloride] | 14 |
